{"source": "patent US20200399392A1", "about": "“INHIBITORS OF PLA2-G1B COFACTORS FOR TREATING CANCER” (priority 2018, published 2020)", "key": {"[1]": {"test_system": "PLA2-GIB", "experiment": "PLA2-GIB enzymatic assay on [3H] arachidonic acid labelled CD4 T cells", "format": "cell-based, human", "details": "SA protein A alone at 10, 25 and 50 μg/ml, FIG. 9A", "procedure": "PLA2-GIB enzymatic assay on [3H] arachidonic acid labelled CD4 T cells or Jurkat E6.1 T cells—Purified CD4 T-cells were incubated for 16 h at 2×10^6 cells/ml with 1 μCi/ml of arachidonic acid [5,6,8,9,11,14,15-^3H(N)] (Perkin Elmer, NET298Z250UC) in RPMI 1640 medium (Lonza) supplemented with 10% FBS, 50 mM HEPES pH 7.4, glutamine, penicillin, streptomycin and fungizone at 2 ml/well in 6-well plates at 37° C. in a 5% CO2 humidified atmosphere. Cells were washed twice with RPMI with 10% FBS by centrifugation at 580×g for 10 minutes at room temperature and then frozen in 90% FBS 10% DMSO at 10^7 cells/ml/vial at −80° C. […]\nTo test PLA2-GIB activity on [3H] arachidonic acid labelled CD4 T lymphocytes, cells were unfrozen in 10% FBS RPMI preheated at 37° C. by centrifugation at 580×g for 10 minutes at room temperature, washed twice in 2.5% FBS RPMI, and equilibrated at 2×10^5 CD4 T cells/400 μl/well in 24-well polystyrene plates for 1 h30 at 37° C. in a 5% CO2 humidified atmosphere. […] The [3H] arachidonic acid released in cell supernatant was quantified in 300 μl with 16 ml of Ultima gold (Perkin Elmer, 6013329) in low diffusion vials (Perkin Elmer, 6000477) on a counter (tri-Carb 2800 TR liquid scintillation analyzer, Perkin Elmer). […]"}, "[2]": {"test_system": "pSTAT5 NT in CD4 T cells", "experiment": "PLA2-GIB bioassay on CD4 T cells: pSTAT5 nuclear translocation in response to IL-7, confocal microscopy", "format": "cell-based, human", "details": "for effect on pSTAT5 NT: FIG. 5B; for nuclear translocation of phosphoSTAT5 (pSTAT5 NT) induced by IL-7: buffer, FIG. 1A; for pSTAT5 NT in response to IL-7: FIG. 2", "text": "Purification of Human CD4 T-lymphocytes—Venous blood was obtained from healthy volunteers through the EFS (Etablissement Français du Sang, Centre Necker-Cabanel, Paris). CD4 T-cells were purified from whole blood using RosetteSep Human CD4+ T cell Enrichment Cocktail (Stem Cell, 15062). This cocktail contains mouse and rat monoclonal antibodies purified from mouse ascites fluid or hybridoma culture supernatant, by affinity chromatography using protein A or Protein G sepharose. These antibodies are bound in bispecific tetrameric antibody complexes which are directed against cell surface antigens on human hematopoietic cells (CD8, CD16, CD19, CD36, CD56 CD66b, TCRγ/δ) and glycophorin A on red blood cells. The rosetteSep antibody cocktail crosslinks unwanted cells in human whole blood to multiple red blood cells, forming immunorosettes. This increases the density of unwanted cells, such that they pellet along with the free red blood cells when centrifuged over a buoyant density medium such as lymphocytes separation medium (Eurobio, CMSMSL01-01).\nWhole blood was incubated with RosetteSep Human CD4+ T cell Enrichment Cocktail at 50 μl/ml for 20 minutes at room temperature under gentle shaking (100 rpm), diluted with an equal volume of PBS+2% foetal bovine serum (FBS) and mixed gently. The diluted samples were centrifuged 20 minutes at 1200×g on top of lymphocytes separation medium. The enriched cells were then collected from the density medium at plasma interface and washed twice with PBS+2% FBS. Cells were subsequently resuspended in RPMI 1640 medium (Lonza) supplemented with 5% FBS, 50 mM HEPES pH 7.4, glutamine, penicillin, streptomycin and fungizone (complete medium), counted with a Moxi Z mini automated cell counter (ORFLO, MXZ000). Cells suspension was adjusted at 7×10^6 cells/ml and equilibrated at least 2 h at 37° C. in a 5% CO2 humidified atmosphere.\nThe enriched CD4-T cell population was controlled by flow cytometry on a cytoflex (Beckman coulter). The quiescence of recovered CD4 T-cells was controlled by the low level of IL-2Rα (CD25)."}, "[3]": {"target": "T1, gC1qR (Homo sapiens, UniProt Q07021)", "T1 sequence (Q07021 74-282)": "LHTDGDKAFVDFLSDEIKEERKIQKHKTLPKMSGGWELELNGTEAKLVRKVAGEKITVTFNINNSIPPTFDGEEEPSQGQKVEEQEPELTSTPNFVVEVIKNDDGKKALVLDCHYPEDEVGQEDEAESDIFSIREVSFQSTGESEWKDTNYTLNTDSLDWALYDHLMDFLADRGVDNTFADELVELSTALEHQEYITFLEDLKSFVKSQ", "experiment": "gC1qR-peptides binding assay (ELISA on microplates)", "details": "peptide coated, His-tag-gC1qR 0 to 3 μg/well, FIG. 12", "procedure": "The unbound protein was removed; the wells washed 2× with TBST (20 mM Tris-HCl pH 7.5, 150 mM NaCl, and 0.05% Tween-20) and the unreacted sites blocked by incubation (30 min, room temp) with 300 μl of 3% BSA in TBST. After washing (2× with TBST), the microtiter plate bound peptides was incubated (2 h, room temp.) with different amount of His-tag-gC1qR ranging from 0 to 3 μg/well in triplicate. After washing (5 times with TBST), 100 μl of anti-His tag-HRP antibody (1:1000; 71840-3, Merck) in 3% BSA in TBST was added per well and incubated for 2 h at room temperature. Microplates wells were then washed (5 times with TBST) and 100 μl of TMB ELISA substrate standard solution (UP664781, Interchim) was added per well. Reaction was stopped with 100 μl per well of a H2SO4 solution at 0.16M and OD at 450 nm was measured on a microplate reader (Tecan Infinite M1000 Pro).\nA scrambled peptide or a control peptide were used as control."}, "[4]": {"test_system": "PLA2-GIB", "experiment": "PLA2-GIB enzymatic assay on [3H] arachidonic acid labelled Jurkat E6.1 T cells", "format": "cell-based, human", "details": "Jurkat E6.1 cells pretreated 21 h, 200 nM PLA2-GIB, FIG. 15", "procedure": "Jurkat E6.1 T cells (ECACC 88042803) or gC1qR KO Jurkat E6.1 T cells were incubated for 17 h at 5×10^5 cells/ml with 1 μCi/ml of arachidonic acid [5,6,8,9,11,14,15-^3H(N)] (Perkin Elmer, NET298Z250UC) in RPMI 1640 medium (Lonza) supplemented with 10% FBS, 50 mM HEPES pH 7.4, glutamine, penicillin, streptomycin and fungizone at 2 ml/well in 6-well plates at 37° C. in a 5% CO2 humidified atmosphere. Cells were washed twice with RPMI with 10% FBS by centrifugation at 300×g for 10 minutes at room temperature and then frozen in 90% FBS 10% DMSO at 10^7 cells/ml/vial at −80° C. Percent of [3H] arachidonic acid in CD4 T cells is the (1 minus ratio of [3H] arachidonic acid in the supernatant of CD4 T cells without cells (cpm/ml) on total [3H] arachidonic acid in supernatant and cells (cpm/ml).\nTo test PLA2-GIB activity on [3H] arachidonic acid labelled Jurkat E6.1 T lymphocytes, cells were unfrozen in 10% FBS RPMI preheated at 37° C. by centrifugation at 300×g for 10 minutes at room temperature, washed twice in 2.5% FBS RPMI, and equilibrated at 5×10^4 or 10^5 Jurkat E6.1 T cells/400 μl/well in 24-well polystyrene plates for 1 h30 at 37° C. in a 5% CO2 humidified atmosphere. Then HCV core solution or vehicle dilution in 2.5% FBS RPMI at 5.95 μM was mixed with an equal volume of a PLA2GIB solution at 630 nM or 2 μM 2.5% FBS RPMI and 100 μl were added per well at the same time for 2 h. For peptide treatments, cells were pretreated for 2 h, 4 h or 21 h, as indicated on figures, with 50 μl per well of peptide solutions at 110 μM or 55 μM in 2.5% FBS RPMI. Then 50 μl per well of PLA2-GIB at 630 nM or 2 μM 2.5% FBS RPMI or medium alone were added for 2 h. Cells and supernatant were collected in eppendorf tubes and centrifuged at 580×g for 10 minutes at room temperature. The [3H] arachidonic acid released in cell supernatant was quantified in 300 μl with 16 ml of Ultima gold (Perkin Elmer, 6013329) in low diffusion vials (Perkin Elmer, 6000477) on a counter (tri-Carb 2800 TR liquid scintillation analyzer, Perkin Elmer)."}, "[5]": {"target": "gC1qR at the surface of human CD4 T cells / Jurkat E6.1 T cells (human) (UniProt Q07021)", "experiment": "cell-based or functional assay"}}}
{"molecule": "SA protein A: Staphylococcus aureus protein A, Sigma P6031", "values": [{"measurement": "release of [3H] arachidonic acids by CD4 T cells", "setting": "[1]", "result": "slightly induces"}]}
{"molecule": "C1q: Complement component C1q from human serum (Sigma C1740), natural ligand of gC1qR", "values": [{"measurement": "inhibition of pSTAT5 NT", "setting": "[2]; C1q alone (10 μg/ml), FIG. 6A", "result": 40, "unit": "%"}]}
{"molecule": "NH2-PWNATWTQRTLDDIW—COOH (H-PWNATWTQRTLDDIW-OH) [CTL peptide, control peptide for PEP3]", "values": [{"measurement": "binding to gC1qR", "setting": "[3]", "result": "essentially do not"}, {"measurement": "effect on pSTAT5 NT", "setting": "[2]; peptide alone, without PLA2-GIB", "result": "no effect"}, {"measurement": "effect on pSTAT5 NT", "setting": "[2]; peptide with 5 nM of PLA2-GIB", "result": "no effect"}]}
{"molecule": "NH2-WNWDSKILSDPAWNS—COOH (H-WNWDSKILSDPAWNS-OH) [Scrambled PEP3, scrambled version of PEP3 used as control]", "values": [{"measurement": "binding to gC1qR", "setting": "[3]", "result": "essentially do not"}]}
{"molecule": "PLA2-GIB: Human group IB pancreatic phospholipase A2, recombinant, produced in E. coli or in CHO-S", "values": [{"measurement": "nuclear translocation of phosphoSTAT5 (pSTAT5 NT) induced by IL-7", "setting": "[2]; 5 nM of PLA2-GIB alone", "result": "does not affect"}, {"measurement": "pSTAT5 NT in response to IL-7", "setting": "[2]; 5 nM of PLA2-GIB, compared with more than 92% without PLA2-GIB", "result": "biologically similar"}, {"measurement": "inhibition of pSTAT5 NT", "setting": "[2]; 75 nM of PLA2-GIB alone, FIG. 4", "result": 49, "unit": "%"}, {"measurement": "nuclear translocation of phosphoSTAT5 (pSTAT5 NT) induced by IL-7", "setting": "[2]; 75 nM of PLA2-GIB alone", "result": "significantly decreases"}, {"measurement": "pSTAT5 NT in response to IL-7", "setting": "[2]; 75 nM of PLA2-GIB", "result": 50, "unit": "%"}, {"measurement": "inhibition of pSTAT5 NT", "setting": "[2]; 250 nM of PLA2-GIB alone, FIG. 4", "result": 79, "unit": "%"}, {"measurement": "pSTAT5 NT in response to IL-7", "setting": "[2]; 250 nM of PLA2-GIB", "result": 10, "unit": "%"}]}
{"molecule": "NH2-SGEGGWSNGSLVDIM-COOH (H-SGEGGWSNGSLVDIM-OH) [HP Pg]", "values": [{"measurement": "PLA2-GIB activity vs scrambled PEP3", "setting": "[4]", "result": "significantly increased"}]}
{"molecule": "H-PWNASWSNKSLDDIW-OH", "note": "[PEP3 peptide NH2-…-COOH]", "values": [{"measurement": "inhibition of pSTAT5 NT in CD4 T cells, 0.025 ug/ml PEP3 with 5 nM PLA2-GIB", "setting": "[5]", "result": 18, "unit": "%"}, {"measurement": "inhibition of pSTAT5 NT in CD4 T cells, 0.5 ug/ml PEP3 with 5 nM PLA2-GIB", "setting": "[5]", "result": 55, "unit": "%"}, {"measurement": "inhibition of pSTAT5 NT in CD4 T cells, 2.5 ug/ml PEP3 with 5 nM PLA2-GIB", "setting": "[5]", "result": 51, "unit": "%"}]}
